For the test, the target named is T1, ACC1 from rat liver (Rattus norvegicus, UniProt P11497).
T1 construct: The livers (for ACC1 preparation) or skeletal muscle tissue (for ACC2 preparation) are removed; from tissue; host or cells: liver of male CD rats (fasted, then fed a high sucrose diet)
The experiment in a line: Direct inhibition of ACC1 activity (14C-bicarbonate incorporation). In kind it is biochemical. How it is done:
[1] Preparation of ACC1 and ACC2.
Male CD rats weighing 150-200 g are fasted for 2 days and then fed a high sucrose diet (AIN-76A rodent diet; Cat # D10001, Research Diets Inc., New Brunswick, N.J.), for 3 days at which time they are sacrificed by CO2 asphyxiation. The livers (for ACC1 preparation) or skeletal muscle tissue (for ACC2 preparation) are removed, rinsed in ice-cold phosphate-buffered saline (PBS), and homogenized in 5 volumes of homogenization buffer (50 mM potassium phosphate, pH 7.5, 10 mM EDTA, 10 mM 2-mercaptoethanol, 2 mM benzamidine, 0.2 mM phenylmethylsulfonylfluoride (PMSF), 5 mg/L each leupeptin, aprotinin, and antitrypsin) in a Waring® blender for 1 minute at 4° C. All subsequent operations are carried out at 4° C. The homogenate is made 3% with respect to polyethylene glycol (PEG) by the addition of 50% PEG solution and centrifuged at 20,000×g for 15 minutes. The resulting supernatant is adjusted to 5% PEG with the addition of 50% PEG solution and stirred for 5 minutes. The pellet (contains ACC activity) is collected by centrifugation at 20,000×g for 20 minutes, rinsed with Ice-cold doubly distilled water to remove excess PEG and re-suspended in one-fourth the original homogenate volume with homogenization buffer. Ammonium sulfate (200 g/liter) is slowly added with stirring. After 45 minutes the enzyme is collected by centrifugation for 30 minutes at 20,000×g, re-suspended in 10 ml of 50 mM HEPES, pH7.5, 0.1 mM DTT, 1.0 mM EDTA, and 10% glycerol and desalted on a Sephadex™ G-25 column (2.5 cm-x 50 cm) (Pharmacia, Piscataway N.J. now GE Healthcare) […] equilibrated with the same buffer. The desalted enzyme preparation is stored in aliquots at −70° C. Immediately prior to use, frozen ACC1 or ACC2 aliquots are thawed, diluted to 500 μg/ml in buffer containing 50 mM HEPES, pH7.5, 1.0 mM MgCl2, 10 mM tripotassium citrate, 2.0 mM dithiothreitol (DTT), and 0.75 mg/ml fatty acid-free bovine serum albumin (BSA) and pre-incubated at 37° C. for 30 minutes.
[2] Measurement of ACC inhibition. The procedures for measuring ACC1 inhibition and ACC2 inhibition are identical except for the source of the isozyme. For measurement of ACC activity and assessment of ACC inhibition, test compounds are dissolved in dimethylsulfoxide (DMSO) and 1 μL aliquots are placed in 0.5 ml polypropylene tubes. Control tubes contain 1 μL of DMSO alone. Tubes are incubated at 37° C. in a constant temperature water bath. […] The reaction is then initiated by the addition of 10 μL of preincubated ACC fraction prepared as described above. After 7 minutes the reaction is terminated by the addition of 50 μL of 6N HCl and a 150 μL aliquot of the reaction mixture is transferred to glass scintillation vials and evaporated to dryness at 90° C. for at least 1 hour. The dried vials are then cooled, 0.5 ml of water and 5.5 ml of Ready Safe liquid scintillation fluid (Beckman Coulter Inc., Fullerton, Calif.) are added, and the radioactivity is determined using a liquid scintillation counter. Tubes that received HCl before ACC served as blanks.

Where a name gives a salt, the structure may show the parent alone.

Results on 30 compounds are retold here after patent US20090270435A1 (priority 2006, published 2009).

Usually IC50 stands for the concentration needed to halve the response being measured. A higher IC50 goes with weaker potency in that assay.

On to `Cc1cc2c(cc1C)C(=O)CC1(CCN(C(=O)c3cccc(-c4ccncn4)c3)CC1)O2` [Ex. P13, 6,7-Dimethyl 1′-[3-(pyrimidin-4-yl)benzoyl]spiro[chromene-2,4′-piperidin]-4(3H)-one], for which, where the note is “Table of Examples P1-P15”, the IC50 was under 3000 nM.
For the setting “Table of Examples M1-M36”, `Cc1ccc2c(c1)OC1(CCN(C(=O)c3cccc(-c4cc[nH]n4)c3)CC1)CC2=O` [Ex. M12, 7-methyl-1′-[3-(1H-pyrazol-3-yl)benzoyl]spiro[chromene-2,4′-piperidin]-4(3H)-one] had an IC50 of 205 nM.
In the case of `COc1ccc2c(c1)OC1(CCN(C(=O)c3cccc4cn[nH]c34)CC1)CC2=O` [Ex. H21], where the note is “ACC1 from rat liver”, the IC50 turned out to be 2530 nM.
On the same count and under the same terms, the value for `Cc1cc2c(cc1Cl)C(=O)CC1(CCN(C(=O)c3cccc4[nH]cnc34)CC1)O2` [Ex. L18, 1′-(1H-benzimidazol-4-ylcarbonyl)-6-chloro-7-methylspiro[chromene-2,4′-piperidin]-4(3H)-one] was 2010 nM; that for `O=C1CC2(CCN(C(=O)c3cccc4cn[nH]c34)CC2)Oc2ccc(Cl)cc21` [Ex. H14, 6-chloro-1′-(1H-indazol-7-ylcarbonyl)spiro[chromene-2,4′-piperidin]-4(3H)-one] was 1390 nM.
Take `CCc1nc(-c2cccc(C(=O)N3CCC4(CC3)CC(=O)c3cc(C)c(C)cc3O4)c2)no1` [Ex. P15, 6,7-Dimethyl-1′-[3-(5-ethyl-1,2,4-oxadiazol-3-yl)benzoyl]spiro[chromene-2,4′-piperidin]-4(3H)-one]: where the note is “Table of Examples P1-P15”, inhibition was half-maximal at 7030 nM (IC50).
`Cc1cc2c(cc1Cl)OC1(CCN(C(=O)c3cccc4cn[nH]c34)CC1)CC2=O` [Ex. H2, 7-chloro-1′-(1H-indazol-7-ylcarbonyl)-6-methylspiro[chromene-2,4′-piperidin]-4(3H)-one] yielded an IC50 (ACC1 from rat liver) of 226 nM.
Same read-out and setting: the value for `O=C1CC2(CCN(C(=O)c3cccc4cn[nH]c34)CC2)Oc2ccccc21` was 3540 nM; that for `Cc1cc2c(cc1C)C(=O)CC1(CCN(C(=O)c3ccc4cc[nH]c4c3)CC1)O2` [Ex. L2, 1′-(1H-indol-6-ylcarbonyl)-6,7-dimethylspiro[chromene-2,4′-piperidin]-4(3H)-one trifluoroacetic acid salt] was 155 nM; that for “5,7-dichloro-1′-(1H-indazol-7-ylcarbonyl)spiro[chromene-2,4′-piperidin]-4(3H)-one [Ex. H15]” was 1480 nM.
`Cc1cc2ccc(C(=O)N3CCC4(CC3)CC(=O)c3cc(C)c(C)cc3O4)cc2[nH]1` [Ex. L3, 6,7-dimethyl-1′-[(2-methyl-1H-indol-6-yl)carbonyl]spiro[chromene-2,4′-piperidin]-4(3H)-one trifluoroacetic acid salt] gave an IC50 (ACC1 from rat liver) of 368 nM.
The compound `COc1c(Cl)ccc2c1C(=O)CC1(CCN(C(=O)c3cccc(-c4cc[nH]n4)c3)CC1)O2` [Ex. M18, 6-chloro-5-methoxy-1′-[3-(1H-pyrazol-3-yl)benzoyl]spiro[chromene-2,4′-piperidin]-4(3H)-one] gave an IC50 (Table of Examples M1-M36) of 374 nM.
Still for that read-out and setting: the value for `O=C1CC2(CCN(C(=O)c3cccc(-c4cc[nH]n4)c3)CC2)Oc2cc(F)c(Cl)cc21` [Ex. M24, 6-chloro-7-fluoro-1′-[3-(1H-pyrazol-3-yl)benzoyl]spiro[chromene-2,4′-piperidin]-4(3H)-one] was 478 nM.
`O=C1CC2(CCN(C(=O)c3ccc4[nH]c5c(c4c3)CCNC5=O)CC2)Oc2ccc(Cl)cc21` [Ex. K3, 6-chloro-1′-[(1-oxo-2,3,4,9-tetrahydro-1H-beta-carbolin-6-yl)carbonyl]spiro[chromene-2,4′-piperidin]-4(3H)-one] registered an IC50 (ACC1 from rat liver) of 106 nM.
`COc1cc2c(c(OC)c1OC)C(=O)CC1(CCN(C(=O)c3cccc(-c4cc[nH]n4)c3)CC1)O2` [Ex. M21, 5,6,7-trimethoxy-1′-[3-(1H-pyrazol-3-yl)benzoyl]spiro[chromene-2,4′-piperidin]-4(3H)-one] displayed an IC50 (Table of Examples M1-M36) of 439 nM.
“6-chloro-1′-[(7-chloro-1H-indazol-5-yl)carbonyl]-7-fluorospiro[chromene-2,4′-piperidin]-4(3H)-one [Ex. B13]”: for the setting “ACC1 from rat liver”, the IC50 amounted to 287 nM.
On the same count and under the same terms, the value for `Cc1cc(C)c2c(c1)C(=O)CC1(CCN(C(=O)c3cccc4cn[nH]c34)CC1)O2` [Ex. H13, 1′-(1H-indazol-7-ylcarbonyl)-6,8-dimethylspiro[chromen-2,4′-piperidin]-4(3H)-one] was 1320 nM; that for `Cc1cc(C(=O)N2CCC3(CC2)CC(=O)c2cc(C#N)ccc2O3)cc2cn[nH]c12` [Ex. A31, 1′-[(7-methyl-1H-indazol-5-yl)carbonyl]-4-oxo-3,4-dihydrospiro[chromene-2,4-piperidine]+carbonitrile] was 234 nM; that for `COc1cccc2c1C(=O)CC1(CCN(C(=O)c3ccc4[nH]c5c(c4c3)CCNC5=O)CC1)O2` [Ex. K2, 5-methoxy-1′-[(1-oxo-2,3,4,9-tetrahydro-1H-beta-carbolin-6-yl)carbonyl]spiro[chromene-2,4′-piperidin]-4(3H)-one] was 28.8 nM.
The same measure, in the same setting: the same measure for `O=C1CC2(CCN(C(=O)c3cc(Cl)c4[nH]ncc4c3)CC2)Oc2ccc(C(F)(F)F)cc21` [Ex. B12, 1′-[(7-chloro-1H-indazol-5-yl)carbonyl]-6-(trifluoromethyl)spiro[chromene-2,4′-piperidin]-4(3H)-one]: 257 nM; for `Cc1cc2c(cc1Cl)C(=O)CC1(CCN(C(=O)c3cccc4[nH]ncc34)CC1)O2` [Ex. J2, 6-chloro-1′-(1H-indazol-4-ylcarbonyl)-7-methylspiro[chromene-2,4′-piperidin]-4(3H)-one]: 375 nM.
In the case of `O=C1CC2(CCN(C(=O)c3cccc(-c4cc[nH]n4)c3)CC2)Oc2cc(Cl)c(F)cc21` [Ex. M36, 7-chloro-6-fluoro-1-[3-(1H-pyrazol-3-yl)benzoyl]spiro[chromene-2,4′-piperidin]-4(3H)-one], the IC50 (Table of Examples M1-M36) turned out to be 1990 nM.
Under “ACC1 from rat liver”, `COc1cccc2c1C(=O)CC1(CCN(C(=O)c3cccc4cn[nH]c34)CC1)O2` [Ex. H16] registered an IC50 of 1620 nM.
With `COc1cc(C)cc2c1C(=O)CC1(CCN(C(=O)c3cccc4cn[nH]c34)CC1)O2` [Ex. H4, 1′-(1H-indazol-7-ylcarbonyl)-5-methoxy-7-methylspiro[chromene-2,4′-piperidin]-4(3H)-one], 279 nM corresponded to half-maximal inhibition (ACC1 from rat liver) (IC50).
The same measure, in the same setting: the value for `Cc1cc(C(=O)N2CCC3(CC2)CC(=O)c2c(Cl)cc(Cl)cc2O3)cc2cn[nH]c12` [Ex. A30, 5,7-dichloro-1′-[(7-methyl-1H-indazol-5-yl)carbonyl]spiro[chromene-2,4′-piperidin]-4(3H)-one] was 209 nM.
In the case of `Cc1cc2c(cc1C)C(=O)CC1(CCN(C(=O)c3cc(-c4cc[nH]n4)ccc3F)CC1)O2` [Ex. P4, 1′-[2-fluoro-5-(1H-pyrazol-3-yl)benzoyl]-6,7-dimethylspiro[chromene-2,4′-piperidin]-4(3H)-one trifluoroacetic acid salt], the IC50 (Table of Examples P1-P15) was under 3000 nM.
Where the note is “ACC1 from rat liver”, `Cc1cc(C(=O)N2CCC3(CC2)CC(=O)c2cc(F)c(Cl)cc2O3)cc2cn[nH]c12` [Ex. A22, 7-chloro-6-fluoro-1′-[(7-methyl-1H-indazol-5-yl)carbonyl]spiro[chromene-2,4′-piperidin]-4(3H)-one] yielded an IC50 of 104 nM.
The same measure, in the same setting: the same measure for `O=C1CC2(CCN(C(=O)c3ccc4c(Cl)c[nH]c4c3)CC2)Oc2ccc(Cl)cc21` [Ex. L7, 6-chloro-1′-[(3-chloro-1H-indol-6-yl)carbonyl]spiro[chromene-2,4′-piperidin]-4(3H)-one]: 183 nM.
The same measure, in the same setting: the same measure for `Cc1cc2c(cc1C)C(=O)CC1(CCN(C(=O)c3ccc4nc[nH]c4c3)CC1)O2` [Ex. L22, 1′-(1H-benzimidazol-5-ylcarbonyl)-6,7-dimethylspiro[chromene-2,4′-piperidin]-4(3H)-one trifluoroacetic acid salt]: 164 nM; for `COc1ccc2c(c1)C(=O)CC1(CCN(C(=O)c3ccc4c(cnn4C)c3)CC1)O2` [Ex. D2, 6-methoxy-1′-[(1-methyl-1H-indazol-5-yl)carbonyl]spiro[chromene-2,4′-piperidin]-4(3H)-one]: 216 nM.
